Assay results: patent US9512140B2, “(Thieno[2,3-b][1,5]benzoxazepin-4-yl)piperazin-1-yl compounds as dual activity H1 inverse agonists/5-HT2A antagonists” (priority 2011, dated 2016)
Structures can show the parent of a compound that is named as a salt.

How the values were obtained:
5-HT2B = 5-HT2B (Homo sapiens, UniProt P41595); test: 5-HT2B antagonist functional activity; format: biochemical
Excerpt: Further, the compounds of the invention may be tested in binding assays and functional activity assays by well known methods for other physiologically important receptors such as, but not limited to, the hERO channel, other serotonin receptors (specifically 5-HT1B, 5-HT1D, receptors, lack of agonist activity at 5-HT2B receptors, 5-HT2C, 5-HT5, 5-HT6, and 5-HT7 receptors), dopaminergic receptors (specifically D1, D2, and D3), GABAA receptors, adrenergic receptors and monoamine transporters.

5-HT2A receptor = biological target: T1, 5-HT2A receptor (Mus musculus, UniProt P35363); test: Inhibition of DOI induced headshake activity; format: in vivo; settings: 10 mg/kg PO, mice, DOI 3 mg/kg, read-out: inhibition of DOI induced headshake response
T1 construct: from tissue; host or cells: living C57BL/6J mice
Procedure: (see for example Bartoszyk G D, van Amsterdam C, Böttcher H, Seyfried C A. EMD 281014, a new selective serotonin 5-HT2A receptor antagonist. Eur J Pharmacol. 2003 473: 229-230.) Briefly, male C57BL/6J mice (20-25 g, Charles River) are housed in standard housing conditions (32 mice in a large IVC cage, 07.00 to 19.00 light phase, constant temperature (19-23° C.) and humidity (50%+/−10), ad lib food and water). Mice received either vehicle (0.25% Methyl cellulose), DOI (3 mg/kg in saline) or test compound at 10 mg/kg PO plus DOI (3 mg/kg in saline). Test compounds are individually evaluated in groups of four per experiment with n=4 for each compound, together with vehicle and DOI+vehicle (n=8). After a test compound pre-treatment time of 60 min. the mice receive either vehicle (saline) or 3 mg/kg DOI dosed subcutaneously, and are then placed into clear perspex observation chambers. […] The data is analyzed using an ANOVA and post-hoc Dunnet's Test. The compound of example 2 is tested essentially as described and is found to inhibit the DOI induced headshake response at 100% at 10 mg/kg.

Sequence of 5-HT2B (P41595 whole entry, species assumed): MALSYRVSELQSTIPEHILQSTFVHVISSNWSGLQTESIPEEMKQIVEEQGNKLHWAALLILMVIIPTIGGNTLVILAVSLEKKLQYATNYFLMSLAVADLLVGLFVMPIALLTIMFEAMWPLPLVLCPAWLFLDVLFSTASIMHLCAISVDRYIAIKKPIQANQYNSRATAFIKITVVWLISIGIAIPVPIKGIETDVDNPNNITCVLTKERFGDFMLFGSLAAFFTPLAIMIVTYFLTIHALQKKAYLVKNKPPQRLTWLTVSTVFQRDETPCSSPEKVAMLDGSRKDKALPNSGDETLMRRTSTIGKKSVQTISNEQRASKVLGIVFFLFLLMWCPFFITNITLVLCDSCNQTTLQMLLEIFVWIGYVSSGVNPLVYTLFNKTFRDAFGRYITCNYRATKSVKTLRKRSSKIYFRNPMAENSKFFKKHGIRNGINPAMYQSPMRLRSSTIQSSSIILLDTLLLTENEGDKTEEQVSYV
T1 sequence (P35363 whole entry): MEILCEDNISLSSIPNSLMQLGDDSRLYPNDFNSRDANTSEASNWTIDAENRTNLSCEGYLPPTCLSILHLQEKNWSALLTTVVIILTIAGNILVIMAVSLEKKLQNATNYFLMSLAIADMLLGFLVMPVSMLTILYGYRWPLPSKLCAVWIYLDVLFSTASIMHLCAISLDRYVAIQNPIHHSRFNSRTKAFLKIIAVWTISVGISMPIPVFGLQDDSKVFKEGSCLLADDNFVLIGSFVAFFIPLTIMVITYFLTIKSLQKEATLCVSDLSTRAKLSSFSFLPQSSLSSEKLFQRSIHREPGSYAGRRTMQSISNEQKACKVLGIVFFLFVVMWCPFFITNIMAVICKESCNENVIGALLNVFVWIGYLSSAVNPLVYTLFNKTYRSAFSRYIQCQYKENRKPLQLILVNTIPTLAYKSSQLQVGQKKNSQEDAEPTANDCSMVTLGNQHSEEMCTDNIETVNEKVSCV

Cc1ccc2c(c1)Oc1sc(C)cc1C(N1CCN(CC(C)(C)C(=O)O)CC1)=N2 [Example 2, 3-[4-(2,8-Dimethylthieno[2,3-b][1,5]benzoxazepin-4-yl)piperazin-1-yl]-2,2-dimethyl-propanoic acid dihydrochloride]
Kb (5-HT2B): 45 nM | inhibition at 10 mg/kg (5-HT2A receptor): 100%
